Patent US8288377B2, “Inhibitors of the interaction between MDM2 and p53” (Janssen Pharmaceutica N.V., priority 2007, dated 2012)

What was measured:
p53 in A2780 cells = assay: p53 ELISA (preservation of p53 in A2780 cells); assay type: cell-based; settings: Homo sapiens, treated with compound for 16 hours, read-out: p53-elisa LAD (lowest dose giving at least 140% of the value for p53 present in the control)
Method: The capacity of the compounds to preserve p53 in A2780 cells was measured with the p53 enzyme linked immunosorbent assay (ELISA). The p53 assay is a “sandwich” enzyme immunoassay employing two polyclonal antibodies. A polyclonal antibody, specific for the p53 protein, has been immobilized onto the surface of the plastic wells. Any p53 present in the sample to be assayed will bind to the capture antibody. The biotinylated detector polyclonal antibody also recognizes p53 protein, and will bind to any p53, which has been retained by the capture antibody. The detector antibody, in turn, is bound by horseradish peroxidase-conjugated streptavidin. The horseradish peroxidase catalyses the conversion of the chromogenic substrate o-phenylene diamine, the intensity of which is proportional to the amount of p53 protein bound to the plate. The coloured reaction product is quantified using a spectrophotometer. Quantitation is achieved by the construction of a standard curve using known concentrations of purified recombinant HIS tagged p53 protein (see example C.1).
A2780 cells (ATCC) were cultivated in RPMI 1640 supplemented with 10% fetal calf serum (FCS), 2 mM L-glutamine and gentamycin at 37° C. in a humidified incubator with 5% CO2.
A2780 cells were seeded at 20.000 cells per well in a 96 well plate, cultured for 24 hours and treated with compound for 16 hours at 37° C. in a humidified incubator. After incubation, the cells were washed once with phosphate-buffered saline and 30 μl, per well, low salt RIPA buffer (20 mM tris, pH7.0, 0.5 mM EDTA, 1% Nonidet P40, 0.5% DOC, 0.05% SDS, 1 mM PMSF, 1 μg/ml aprotinin and 0.5 μ/ml leupeptin) was added. Plates were placed on ice for 30 minutes to complete the lysis. p53 protein was detected in de lysates by using the sandwich ELISA, described below.
High binding polystyrene EIA/RIA 96 well plates (Costar 9018) were coated with the capture antibody pAb1801 (Abcam ab28-100) at a concentration of 1 μg/ml in coating buffer (0.1 M NaHCO3 pH8.2), 50 μl per well. The antibody was allowed to adhere overnight at 4° C. Coated plates were washed once with phosphate-buffered saline (PBS)/0.05% Tween 20 and 300 μl of blocking buffer (PBS, 1% bovine serum albumins (BSA)) was added, for an incubation period of 2 hours at room temperature. Dilutions of purified recombinant HIS tagged p53 protein, ranging from 3-200 ng/ml, were made in blocking buffer and used as standards.
Plates were washed twice with PBS/0.05% Tween 20 and blocking buffer or standards were added at 80 μl/well. To the standards, 20 μl of lysis buffer was added. The samples were added to the other wells at 20 μl lysate/well. After an overnight incubation at 4° C., plates were washed twice with PBS/0.05% Tween 20. Aliquots of 100 μl secondary polyclonal antibody p53(FL-393) (Tebubio, sc-6243) at a concentration of 1 μg/ml in blocking buffer were added to each well and allowed to adhere for 2 hours at room temperature. Plates were washed three times with PBS/0.05% Tween 20. Detection antibody anti-rabbit HRP (sc-2004, Tebubio) at 0.04 μg/ml in PBS/1% BSA was added and incubated for 1 hour at room temperature. Plates were washed three times with PBS/0.05% Tween 20 and 100 μl of substrate buffer was added (substrate buffer was prepared shortly before use by adding 1 tablet of 10 mg o-phenylene diamine (OPD) from Sigma and 125 μl 3% H2O2 to 25 ml OPD buffer: 35 mM citric acid, 66 mM Na2HPO4, pH5.6). After 5 to 10 minutes, colour reaction was stopped by adding 50 μl stop buffer (1 M H2SO4) per well. The absorbance at dual wavelengths of 490/655 nm was measured using a Biorad micro plate reader and the results were then analyzed.
For each experiment, controls (containing no drug) and a blank incubation (containing no cells or drugs) were run in parallel. The blank value was subtracted from all control and sample values. For each sample, the value of p53 (in absorbance units) was expressed as the percentage of the value for p53 present in the control. […]

[1] = test system: A2780 ovarian cancer cells; assay: Proliferation assay (Alamar Blue); assay type: cell-based; settings: Homo sapiens, 96 h, 4-day incubation, read-out: pIC50 (negative log value of the IC50-value) (converted)
Method: Cellular activity of the compounds of formula (I) was determined on A2780 tumour cells using a colorimetric assay for cell toxicity or survival (see example C.2).
The human A2780 ovarian cancer cells were a kind gift from Dr. T. C. Hamilton (Fox Chase Cancer Centre, Pennsylvania, U.S.A.). The cells were cultured in RPMI 1640 medium supplemented with 2 mM L-Glutamine, 50 μg/ml gentamicin and 10% fetal calf serum.
Resazurin was purchased from Aldrich (Prod. No. 199303). Potassium ferrocyanide, potassium ferricyanide, KH2PO4 and K2HPO4 were purchased from Sigma (Prod. Nos. P9387, P8131, P5655 and P8281, respectively).
Potassium Phosphate Buffer 0.1 M (PPB) was made as follows: 2.72 gram KH2PO4 and 13.86 gram K2HPO4 were dissolved in 500 ml milli-Q H2O, the pH was adjusted to pH 7.4 and the volume was brought to 1 liter with milli-Q H2O; the buffer was filter sterilised and stored at room temperature. Resazurin stock solution (PPB-A) was prepared fresh by dissolving 45 mg resazurin in 15 ml PBS. 30 mM potassium ferricyanide (PPB-B) was prepared by dissolving 0.987 gram potassium ferricyanide in 100 ml PPB. 30 mM potassium ferrocyanide (PPB-C) was prepared by dissolving 1.266 gram potassium ferrocyanide in 100 ml PPB.
Mixture of PPB-A, PPB-B and PPB-C was prepared by mixing equal volumes of the respective solutions. Resazurin work solution (herein termed “Alamar Blue” solution) was prepared by diluting said mixture 20× (vol/vol) in PPB and filter sterilising; the Alamar Blue solution could be kept at 4° C. for a maximum of 2 weeks.
For experiments in 384 wells plates the cells were seeded at a density of 5×10^3 cells/ml in Falcon 384-well culture plates (Life Technologies, Merelbeke, Belgium), black with clear bottom, in 45 μl culture medium. Cells were allowed to adhere to plastic for 24 hr. The tested compound was pre-diluted (1/50 in culture medium) and 5 μl pre-diluted compound was added to the wells. Following 4-day incubation, 10 μl of the Alamar Blue solution was added to each well and the cells were further incubated for 5 hrs (A2780) at 37° C. The fluorescence intensity was measured for each well with a Fluorescence plate reader (Fluorskan, Labsystems, 540 nm excitation and 590 nm emission)
The antiproliferative activity was calculated as percentage of remaining viable cells in treated versus control (untreated cells) conditions. Within an experiment, the result for each experimental condition is the mean of 3 replicate wells. When appropriate, the experiments were repeated to establish full concentration-response curves. When appropriate, IC50-values (concentration of the drug, needed to reduce cell growth to 50% of the control) were computed using probit analysis for graded data (Finney, D. J., Probit Analyses, 2nd Ed. Chapter 10, Graded Responses, Cambridge University Press, Cambridge 1962). Herein the effects of test compounds are expressed as pIC50 (the negative log value of the IC50-value) (see Table 4).

Row | Structure (SMILES) | IC50 [1] | minimal effective concentration (p53 in A2780 cells)
1 | O=C1COc2cc(Nc3ccnc4c3CCC4O)ccc2N1CCc1c[nH]c2ccccc12 (stereo not drawn) [Compound 2] | ~6.03 µM | 1 µM
2 | OC1CCc2c(Nc3ccc4c(c3)OC(c3ccoc3)CN4CCc3c[nH]c4ccccc34)ccnc21 (stereo not drawn) [Compound 5] | 2.57 µM | 0.3 µM
3 | O=C1N(CCc2c[nH]c3ccccc23)c2ccc(Nc3ccnc4c3CCC4O)cc2OC1(F)F (stereo not drawn) [Compound 10] | – | 0.3 µM
4 | OC1CCc2c(Nc3ccc4c(c3)CCCN4CCc3c[nH]c4ccccc34)ccnc21 (stereo not drawn) [Compound 11] | 2.34 µM | 0.1 µM
5 | OC1CCc2c(Nc3cc(F)c4c(c3)OCCN4CCc3c[nH]c4ccccc34)ccnc21 (stereo not drawn) [Compound 13] | 4.47 µM | 1 µM
6 | Cc1cccc2c(CCN3CCOc4cc(Nc5ccnc6c5CCC6O)ccc43)c[nH]c12 (stereo not drawn) [Compound 14] | 2.88 µM | 3 µM
7 | OCc1cc(Nc2ccc3c(c2)OC2(CCNCC2)CN3CCc2c[nH]c3ccccc23)ccn1 [Compound 16] | > 10 µM | > 10 µM
8 | Cc1cccc2c(CCN3CC(CO)Oc4cc(Nc5ccncc5)ccc43)c[nH]c12 (stereo not drawn) [Compound 17] | – | > 10 µM
9 | Cc1cccc2c(CCN3CC(O)COc4cc(Nc5ccnc6c5CCC6O)ccc43)c[nH]c12 (stereo not drawn) [Compound 18] | – | > 10 µM
10 | Cc1cccc2c(CCN3C[C@@H](CO)Oc4cc(Nc5ccnc6c5CC[C@@H]6O)ccc43)c[nH]c12 [Compound 19] | – | > 10 µM
11 | CN1CCN(CCc2c[nH]c3ccccc23)c2ccc(Nc3ccnc(CO)c3)cc21 [Compound 20] | 4.79 µM | 3 µM
12 | O=C1COc2cc(Nc3ccnc(CO)c3)ccc2N1CCc1c[nH]c2ccccc12 [Compound 21] | > 10 µM | > 10 µM
13 | CC1CN(CCc2c[nH]c3ccccc23)c2ccc(Nc3ccnc4c3CCC4O)cc2O1 (stereo not drawn) [Compound 24] | 5.62 µM | 3 µM
14 | Cc1cccc2c(CCN3CC4(CCCCC4)Oc4cc(Nc5ccnc6c5CCC6O)ccc43)c[nH]c12 (stereo not drawn) [Compound 25] | ~5.62 µM | 0.03 µM
15 | OC1CCc2c(Nc3ccc4c(c3)OC3(CCSCC3)CN4CCc3c[nH]c4ccccc34)ccnc21 (stereo not drawn) [Compound 26] | ~6.03 µM | 0.03 µM
16 | CC1CN(CCc2c[nH]c3ccccc23)c2c(F)cc(Nc3ccnc4c3CCC4O)cc2O1 (stereo not drawn) [Compound 32] | – | 3 µM
17 | CC1CN(CCc2c[nH]c3ccccc23)c2c(F)cc(Nc3ccncc3)cc2O1 (stereo not drawn) [Compound 57] | – | > 10 µM
18 | Cc1cccc2c(CCN3CC4(CCN(C)CC4)Oc4cc(Nc5ccncc5)ccc43)c[nH]c12 [Compound 58] | – | > 10 µM
19 | O=C1N(CCc2c[nH]c3ccccc23)c2ccc(Nc3ccncc3)cc2OC1(F)F [Compound 60] | – | > 10 µM
20 | O=C1N(CCc2c[nH]c3ccccc23)c2ccc(Nc3ccnc(CO)c3)cc2OC1(F)F [Compound 64] | – | 10 µM
21 | Cc1cccc2c(CCN3CC4(CCNCC4)Oc4cc(Nc5ccncc5)ccc43)c[nH]c12 [Compound 73] | – | > 10 µM
22 | Cc1cccc2c(CCN3CC4(CCNCC4)Oc4cc(Nc5ccnc6c5CCC6O)ccc43)c[nH]c12 (stereo not drawn) [Compound 74] | – | > 10 µM
23 | CC1CN(CCc2c[nH]c3ccccc23)c2ccc(Nc3ccnc(CO)c3)cc2O1 (stereo not drawn) [Compound 79] | – | 10 µM
24 | CC1Oc2cc(Nc3ccnc4c3CCC4O)ccc2N(CCc2c[nH]c3ccccc23)C1=O (stereo not drawn) [Compound 80] | 3.09 µM | –

The next lines start with results.

Row | IC50 [1] | Structure (SMILES) | minimal effective concentration (p53 in A2780 cells)
25 | 0.427 µM | OC1CCc2c(Nc3ccc4c(c3)OCCN4CCc3c[nH]c4ccccc34)ccnc21 (stereo not drawn) [Compound 1] | 0.1 µM
26 | > 10 µM | c1ccc2c(CCN3CCOc4cc(Nc5ccncc5)ccc43)c[nH]c2c1 [Compound 3] | > 10 µM
27 | > 10 µM | O=C1COc2cc(Nc3ccncc3)ccc2N1CCc1c[nH]c2ccccc12 [Compound 4] | > 10 µM
28 | 5.5 µM | c1ccc2c(CCN3CCOc4cc(Nc5ccncc5)ccc43)csc2c1 [Compound 6] | > 10 µM
29 | 8.51 µM | c1ccc2c(CCN3CC4(CCOCC4)Oc4cc(Nc5ccncc5)ccc43)c[nH]c2c1 [Compound 7] | > 10 µM
30 | 1.26 µM | CC(C)N1CCC2(CC1)CN(CCc1c[nH]c3ccccc13)c1ccc(Nc3ccncc3)cc1O2 [Compound 8] | > 10 µM
31 | ~5.89 µM | CC1CN(CCc2c[nH]c3ccccc23)c2ccc(Nc3ccncc3)cc2O1 (stereo not drawn) [Compound 9] | > 10 µM
32 | 3.72 µM | OC1CCc2c(Nc3ccc4c(c3)OCCN4CCc3csc4ccccc34)ccnc21 (stereo not drawn) [Compound 12] | 0.3 µM
33 | 8.32 µM | c1ccc2c(CCN3CC4(CCNCC4)Oc4cc(Nc5ccncc5)ccc43)c[nH]c2c1 [Compound 15] | > 10 µM
34 | 2.29 µM | OCc1cc(Nc2ccc3c(c2)OCCN3CCc2c[nH]c3ccccc23)ccn1 [Compound 22] | 1 µM
35 | 3.02 µM | c1ccc2c(CCN3CCCc4cc(Nc5ccncc5)ccc43)c[nH]c2c1 [Compound 23] | > 10 µM
